From US20220409629A1, “BENZODIAZEPINE DERIVATIVES FOR TREATING A RESPIRATORY SYNCYTIAL VIRUS (RSV) INFECTION” (priority 2019, published 2022)

Key:
RSV A2 = assay: RSV plaque reduction assay; type: cell-based, respiratory syncytial virus (RSV); conditions: human respiratory syncytial virus, HepG2; Hep-G2 cells, RSV A2, mean of at least two experiments
In short: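 RSV A2 (100 PFU/well) premixed with eight serial compound dilutions, added to confluent Hep-G2 monolayers for 2 h at 37° C, then held 2 days under CMC overlay containing compound (DMEM, 2% FBS). Plaques immunostained (HRP/TrueBlue) and counted; EC50 is 50% reduction versus virus control from 4-parameter fit, mean of ≥2 experiments.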

Cell cytotoxicity CC50 = type: cell-based; conditions: human; mean of at least two experiments
[1] = Liver microsomal stability, rat; type: in vitro ADME; conditions: pH 7.4; rat liver microsomes, 0.5 mg/mL protein, 1 μM compound, NADPH; >80% remaining at 45 min denoted >140; read-out: Liver Microsomal Stability: t1/2 (min); rat
In short: (§1)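 Pooled liver microsomes (0.5 mg/mL protein) in 0.1 M phosphate pH 7.4 with 1 μM compound (0.25% DMSO), started with 1 mM NADPH at 37° C; sampled 0-45 min, minus-NADPH control 45 min. LC-MS/MS depletion slope gave t1/2 and CLint.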

[2] = Liver microsomal stability, dog; type: in vitro ADME; conditions: pH 7.4; dog liver microsomes, 0.5 mg/mL protein, 1 μM compound, NADPH; >80% remaining at 45 min denoted >140; read-out: Liver Microsomal Stability: t1/2 (min); dog
In short: as §1

[3] = Liver microsomal stability, human; type: in vitro ADME; conditions: pH 7.4; human liver microsomes, 0.5 mg/mL protein, 1 μM compound, NADPH; >80% remaining at 45 min denoted >140; read-out: Liver Microsomal Stability: t1/2 (min); human
In short: as §1

[4] = Liver hepatocyte stability, rat; type: in vitro ADME; conditions: rat hepatocytes, 3 μM compound, 60 min, >80% remaining at 60 min denoted >186, read-out: Liver Hepatocyte Stability: t1/2 (min)
Procedure: (§2) Cryopreserved pooled hepatocytes were purchased from a reputable commercial supplier and stored in liquid nitrogen prior to use. Williams E media supplemented with 2 mM L-glutamine and 25 mM HEPES and test compound (final substrate concentration 3 μM; final DMSO concentration 0.25%) are pre-incubated at 37° C. prior to the addition of a suspension of cryopreserved hepatocytes (final cell density 0.5×10^6 viable cells/mL in Williams E media supplemented with 2 mM L-glutamine and 25 mM HEPES) to initiate the reaction. The final incubation volume is 500 μL. Two control compounds were included with each species, alongside appropriate vehicle control. The reactions are stopped by transferring 50 μL of incubate to 100 μL acetonitrile containing internal standard at the appropriate time points. Samples were removed at 6 time points (0, 5, 15, 30, 45 and 60 min) over the course of a 60 min experiment. The termination plates are centrifuged at 2500 rpm at 4° C. for 30 min to precipitate the protein. Following protein precipitation, the sample supernatants were combined in cassettes of up to 4 compounds and analysed using generic LC-MS/MS conditions. From a plot of ln peak area ratio (compound peak area/internal standard peak area) against time, the gradient of the line is determined. Subsequently, half-life (t1/2) and intrinsic clearance (CLint) were calculated.

[5] = Liver hepatocyte stability, dog; type: in vitro ADME; conditions: dog hepatocytes, 3 μM compound, 60 min, >80% remaining at 60 min denoted >186, read-out: Liver Hepatocyte Stability: t1/2 (min)
Procedure: as §2

[6] = Liver hepatocyte stability, human; type: in vitro ADME; conditions: human hepatocytes, 3 μM compound, 60 min, >80% remaining at 60 min denoted >186, read-out: Liver Hepatocyte Stability: t1/2 (min)
Procedure: as §2

[7] = Rat pharmacokinetics in vivo; conditions: male Sprague Dawley rats; for C 8 h / Cmax: doses 1 mg/kg (IV) and 10 mg/kg (PO); for Vd / clearance / bioavailability / half-life / AUC(0-t) / Cmax: rat, in vivo; for AUC(0-t): read-out: PO AUClast
Procedure: The pharmacokinetics of compounds were studied in vivo in rats at doses of 1 mg/kg (IV) and 10 mg/kg (PO).
Male rats (Sprague Dawley) surgically prepared with a jugular vein cannula were treated with experimental compounds via intravenous administration (IV; n=3; 1 mg/kg) or oral administration (PO; n=3; 10 mg/kg). Compounds were formulated as a solution in 40:60 dimethylacetamide:saline (IV administration), a suspension in 1% methyl cellulose (viscosity: 15 cP), 0.1% Tween80 in water (PO administration: Example 3), a solution in 10% DMSO/10% Cremaphor/80% water (PO administration: Examples 4, 11, 21, 23, 25, 26, 32) or a solution in 10% DMSO/20% Cremaphor/70% water (PO administration: Examples 19, 20, 22, 24, 30). […] Serial blood samples were collected via the cannula at 0.02, 0.08, 0.25, 0.5, 1, 2, 4, 6, 8 and 24 h post IV dosing of compound, and at 0.08, 0.25, 0.5, 1, 2, 4, 6, 8 and 24 h post oral dosing of compound, and plasma was prepared by centrifugation and stored immediately at −80° C. Samples were subsequently thawed, prepared for analysis by protein precipitation with acetonitrile, and analysed by tandem LCMS using electrospray ionisation using a matrix-matched calibration curve. PK parameters were calculated from the resulting data.

[8] = IV 1 mg/kg, read-out: IV t½ (converted)
[9] = PO 10 mg/kg, read-out: PO t½ (converted)

SMILES	EC50 (RSV A2)	CC50 (Cell cytotoxicity CC50)	half-life [1]	half-life [2]	half-life [3]	half-life [4]	half-life [5]	half-life [6]	C 8 h [7]	Vd ([7]; IV 1 mg/kg)	clearance ([7]; IV 1 mg/kg)	bioavailability ([7]; IV 1 mg/kg, PO 10 mg/kg)	half-life [7, 8]	AUC(0-t) ([7]; PO 10 mg/kg)	half-life [7, 9]	Cmax [7]
CC(C)(C)n1cc(C(=O)N[C@H]2N=C(c3ccccc3)c3cccc(F)c3NC2=O)c(-c2ccc(NC3CC3)nc2F)n1 [Example 30, 1-tert-Butyl-3-[6-(cyclopropylamino)-2-fluoropyridin-3-yl]-N-[(3S)-9-fluoro-2-oxo-5-phenyl-1,3-dihydro-1,4-benzodiazepin-3-yl]pyrazole-4-carboxamide]	32 nM	> 25000 nM	53.1 min	63.7 min	253 min	98.5 min	> 186 min	71.3 min	444 ng/mL	1.4 L/kg	11.2 mL/min/kg	57%	1.8 h	8540 ng·h/mL	3 h	918 ng/mL
CCn1cc(C(=O)N[C@H]2N=C(c3ccccc3)c3ccccc3NC2=O)c(-c2ccc(NC3CC3)nc2F)n1 [Example 25, 3-[6-(Cyclopropylamino)-2-fluoropyridin-3-yl]-1-ethyl-N-[(3S)-2-oxo-5-phenyl-1,3-dihydro-1,4-benzodiazepin-3-yl]pyrazole-4-carboxamide]	49 nM	> 25000 nM	46.3 min	17 min	82.8 min	> 186 min	68.1 min	506 min	294 ng/mL	0.9 L/kg	15.9 mL/min/kg	71.5%	1.3 h	7470 ng·h/mL	2.7 h	1150 ng/mL
O=C(N[C@H]1N=C(c2ccccc2)c2cccc(F)c2NC1=O)c1cnn(C2COC2)c1-c1ccc(NC2CC2)nc1F [Example 19, 5-[6-(Cyclopropylamino)-2-fluoropyridin-3-yl]-1-(oxetan-3-yl)-N-[(3S)-9-fluoro-2-oxo-5-phenyl-1,3-dihydro-1,4-benzodiazepin-3-yl]pyrazole-4-carboxamide]	37 nM	> 25000 nM	> 140 min	90.8 min	154 min	185 min	72.2 min	> 186 min	315 ng/mL	1.6 L/kg	14.3 mL/min/kg	64.6%	1.7 h	7290 ng·h/mL	3 h	1320 ng/mL
CCn1cc(C(=O)N[C@H]2N=C(c3ccccc3)c3cccc(F)c3NC2=O)c(-c2ccc(NC3CC3)nc2F)n1 [Example 26, 3-[6-(Cyclopropylamino)-2-fluoropyridin-3-yl]-1-ethyl-N-[(3S)-9-fluoro-2-oxo-5-phenyl-1,3-dihydro-1,4-benzodiazepin-3-yl]pyrazole-4-carboxamide]	36 nM	> 25000 nM	70.2 min	30.8 min	84.9 min	> 186 min	160 min	> 186 min	919 ng/mL	1.1 L/kg	8.2 mL/min/kg	95.6%	2.6 h	19400 ng·h/mL	2.6 h	2120 ng/mL
O=C(N[C@H]1N=C(c2ccccc2)c2cccc(F)c2NC1=O)c1cn(C2CCOCC2)nc1-c1ccc(NC2CC2)nc1F [Example 32, 3-[6-(Cyclopropylamino)-2-fluoropyridin-3-yl]-N-[(3S)-9-fluoro-2-oxo-5-phenyl-2,3-dihydro-1H-1,4-benzodiazepin-3-yl]-1-(oxan-4-yl)-1H-pyrazole-4-carboxamide]	58 nM	> 25000 nM	127 min	331 min	298 min	376 min	> 186 min	> 186 min	84 ng/mL	1.1 L/kg	17.7 mL/min/kg	19.3%	1.2 h	1940 ng·h/mL	5.2 h	452 ng/mL
CCn1ncc(C(=O)N[C@H]2N=C(c3ccccc3)c3cccc(F)c3NC2=O)c1-c1ccc(NC2CC2)nc1F [Example 11, 5-[6-(Cyclopropylamino)-2-fluoropyridin-3-yl]-1-ethyl-N-[(3S)-9-fluoro-2-oxo-5-phenyl-1,3-dihydro-1,4-benzodiazepin-3-yl]pyrazole-4-carboxamide]	62 nM	> 25000 nM	76.3 min	24 min	82.4 min	151 min	48.2 min	194 min	673 ng/mL	2 L/kg	13.9 mL/min/kg	93%	3.2 h	11200 ng·h/mL	2.2 h	984 ng/mL
